Reference: PubChem BioAssay AID1963858 (Molecular Pharmacology Branch, DTP, NCI, 2024)

Test system: HOP-62 multicell spheroids with HUVEC/MSC, viability
Assay: Anticancer human tumor HOP-62 cell line growth inhibition [KRAS2];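 also: viability read after a week of compound exposure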;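 as to viability, T/C: 100% = DMSO vehicle-treated spheroids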
Conditions: for IC50: curve of first compound; for viability, T/C: stronger effect = lower value
Source text: Multicellular complex tumor spheroid response to RAS pathway inhibitors in combination with a targeted agents in patient-derived cell lines with oncogenic KRAS variants from multiple cancer types
A high-throughput screen of multi-cell type tumor spheroids was designed to identify active combinations of targeted small molecules and KRAS pathway inhibitors. Complex spheroids include a stromal component modeled by human endothelial cells (HUVEC) and fibroblasts modeled by human mesenchymal stem cells (MSCs). The concentration ranges selected for each drug and investigational agent were based upon clinically achievable concentrations if the clinical Cmax of the agent was known.
Compounds. The drugs and investigational agents: BI-3406 (NSC825286), BAY-293 (NSC824723), batoprotafib (TNO155; NSC825523), sotorasib (AMG 510; NSC818433), MRTX1257 (NSC819558), elimusertib (BAY 1895344; NSC800525), molibresib (GSK525762; NSC774829), temuterkib (LY3214996; NSC803410), venetoclax (NSC766270), alisertib (NSC759677), olaparib (NSC753686), talazoparib (NSC767125), erdafitinib (NSC781556), ipatasertib (NSC767898), cabozantinib (NSC761068), nintedanib (NSC756659), abemaciclib (NSC768073), docetaxel (NSC628503), trametinib (NSC758246), and sapanisertib (NSC764658) were obtained from the National Cancer Institute (NCI) Developmental Therapeutics Program Chemical Repository. The FDA-approved anticancer drug set is available from the Developmental Therapeutics Program. […] The stock solutions were prepared in dimethyl sulfoxide (DMSO, Sigma-Aldrich, St. Louis, MO, cat. D2650) at 800-fold the tested concentration and stored at -70 degrees C prior to their use. All drugs and investigational agents were tested over a range starting from a high concentration at or near the clinical Cmax and decreasing in half-log increments. If the clinical Cmax for an agent had not been determined, the highest concentration tested was 10 microM.
Cell Culture. All cells were maintained in an incubator at 37 degrees C and 5% CO2 with 95% humidity. The PDC lines were cultured according to standard operating procedures established by the NCI PDMR (https://pdmr.cancer.gov/sops/default.htm). Briefly, all PDCs were thawed and cultured in Matrigel-coated flasks prepared with a working solution of 1X Ham's F-12 nutrient mix, without supplementation (Invitrogen, Waltham, MA, cat. 11765054), 100 U/mL penicillin-streptomycin (Invitrogen, cat. 15140122), and 2.5% Matrigel (Corning Inc., Corning, NY, cat. 354248) for the first three passages. All PDCs were cultured in complete DMEM/F-12 media containing advanced DMEM/F-12 (Invitrogen, cat. 12634028), 4.9% defined fetal bovine serum, heat inactivated (HyClone Laboratories Inc., Logan, UT, cat. SH30070.03HI), 389 ng/mL hydrocortisone (Sigma-Aldrich, cat. H4001), 9.7 ng/mL human EGF recombinant protein (Invitrogen, cat. PHG0313), 23.4 microg/mL adenine (Sigma-Aldrich, cat. A2786), 97.3 U/mL penicillin-streptomycin (Invitrogen, cat. 15140122), 1.9 mM L-glutamine (Invitrogen, cat. 25030081), and 9.7 microM Y-27632 dihydrochloride (Tocris Bioscience, Bristol, United Kingdom, cat. 1254). The PDCs were cultured in complete DMEM/F12 media without 9.7 microM Y-27632 dihydrochloride for at least two passages prior to the screen. The established cell line HOP-62 was cultured in RPMI 1640 medium, HEPES (Invitrogen, cat. 22400105) with 10% defined fetal bovine serum (HyClone Laboratories Inc., cat. SH30070.03) and 2 mM L-glutamine (Invitrogen, cat. 25030081). The pooled donor HUVEC were cultured in endothelial cell growth medium 2 (PromoCell, Heidelberg, Germany, cat. C-22011) and the hMSC were cultured in mesenchymal stem cell growth medium 2 (PromoCell, cat. C-28009). For all experiments, HUVEC and hMSC were used at passages </=5, while the malignant cell lines were used at passages </=15. […]

[1] = second compound 0.1 µM, first compound 0.0316 µM
[2] = second compound 0.1 µM, first compound 0.1 µM
[3] = second compound 0.1 µM, first compound 0.316 µM
[4] = second compound 0.1 µM, first compound 1 µM
[5] = second compound 0.1 µM, first compound 3.16 µM
[6] = second compound 0.1 µM, first compound 10 µM
[7] = second compound 0.316 µM, first compound 0.0316 µM
[8] = second compound 0.316 µM, first compound 0.1 µM
[9] = second compound 0.316 µM, first compound 0.316 µM
[10] = second compound 0.316 µM, first compound 1 µM
[11] = second compound 0.316 µM, first compound 3.16 µM
[12] = second compound 0.316 µM, first compound 10 µM
[13] = second compound 1 µM, first compound 0.0316 µM
[14] = second compound 1 µM, first compound 0.1 µM
[15] = second compound 1 µM, first compound 0.316 µM
[16] = second compound 1 µM, first compound 1 µM
[17] = second compound 1 µM, first compound 3.16 µM
[18] = second compound 1 µM, first compound 10 µM
[19] = second compound 3.16 µM, first compound 0.0316 µM
[20] = second compound 3.16 µM, first compound 0.1 µM
[21] = second compound 3.16 µM, first compound 0.316 µM
[22] = second compound 3.16 µM, first compound 1 µM
[23] = second compound 3.16 µM, first compound 3.16 µM
[24] = second compound 3.16 µM, first compound 10 µM
[25] = second compound 10 µM, first compound 0.0316 µM
[26] = second compound 10 µM, first compound 0.1 µM
[27] = second compound 10 µM, first compound 0.316 µM
[28] = second compound 10 µM, first compound 1 µM
[29] = second compound 10 µM, first compound 3.16 µM
[30] = second compound 10 µM, first compound 10 µM

Structure (SMILES)	IC50 (second compound 0.1 µM)	IC50 (second compound 0.316 µM)	IC50 (second compound 1 µM)	IC50 (second compound 3.16 µM)	viability, T/C [1]	viability, T/C [2]	viability, T/C [3]	viability, T/C [4]	viability, T/C [7]	viability, T/C [8]	viability, T/C [9]	viability, T/C [10]	viability, T/C [13]	viability, T/C [14]	viability, T/C [15]	viability, T/C [16]	viability, T/C [19]	viability, T/C [20]	viability, T/C [21]	viability, T/C [22]	further results
CC1(C)CCC(CN2CCN(c3ccc(C(=O)NS(=O)(=O)c4ccc(NCC5CCOCC5)c([N+](=O)[O-])c4)c(Oc4cnc5[nH]ccc5c4)c3)CC2)=C(c2ccc(Cl)cc2)C1 + CNCc1ccccc1-c1csc(C(C)Nc2nc(C)nc3cc(OC)c(OC)cc23)c1	5.71 µM	4.57 µM	3.38 µM	< 0.0316 µM	92.1%	89.5%	82.5%	95.3%	81.2%	77%	76.5%	81.6%	90.1%	76.2%	67.8%	73.1%	1.65%	25.9%	17.9%	40.3%	IC50 (second compound 10 µM): < 0.0316 µM; viability, T/C [5]: 71.6%; viability, T/C [6]: 29.5%; viability, T/C [11]: 61.8%; viability, T/C [12]: 24.9%; viability, T/C [17]: 54%; viability, T/C [18]: 14.9%; viability, T/C [23]: 13.5%; viability, T/C [24]: 1.45%; viability, T/C [25]: 0.12%; viability, T/C [26]: 0.16%; viability, T/C [27]: 0.16%; viability, T/C [28]: 0.18%; viability, T/C [29]: 0.15%; viability, T/C [30]: 0.22%
CCN1CCN(Cc2ccc(Nc3ncc(F)c(-c4cc(F)c5nc(C)n(C(C)C)c5c4)n3)nc2)CC1 + C=CC(=O)N1CCN(c2nc(OCC3CCCN3C)nc3c2CCN(c2cccc4cccc(C)c24)C3)CC1CC#N	0.0582 µM	0.0172 µM	< 0.00316 µM	< 0.00316 µM	54.7%	43.8%	42.9%	31.6%	51.3%	38.4%	34.1%	30.1%	37.3%	37.1%	37.8%	23.8%	1.14%	0.26%	0.17%	0.19%	IC50 (second compound 0.0316 µM): 0.422 µM; viability, T/C (second compound 0.0316 µM, first compound 0.00316 µM): 91.3%; viability, T/C (second compound 0.0316 µM, first compound 0.01 µM): 83.8%; viability, T/C (second compound 0.0316 µM, first compound 0.0316 µM): 64.1%; viability, T/C (second compound 0.0316 µM, first compound 0.1 µM): 65%; viability, T/C (second compound 0.0316 µM, first compound 0.316 µM): 52.4%; viability, T/C (second compound 0.0316 µM, first compound 1 µM): 42.9%; viability, T/C (second compound 0.1 µM, first compound 0.00316 µM): 65.6%; viability, T/C (second compound 0.1 µM, first compound 0.01 µM): 59.4%; viability, T/C (second compound 0.316 µM, first compound 0.00316 µM): 57.3%; viability, T/C (second compound 0.316 µM, first compound 0.01 µM): 51.4%; viability, T/C (second compound 1 µM, first compound 0.00316 µM): 39.4%; viability, T/C (second compound 1 µM, first compound 0.01 µM): 33.8%; viability, T/C (second compound 3.16 µM, first compound 0.00316 µM): 0.71%; viability, T/C (second compound 3.16 µM, first compound 0.01 µM): 1.27%
CCNC(=O)CC1N=C(c2ccc(Cl)cc2)c2cc(OC)ccc2-n2c(C)nnc21 (stereo not given) + C=CC(=O)N1CCN(c2nc(=O)n(-c3c(C)ccnc3C(C)C)c3nc(-c4c(O)cccc4F)c(F)cc23)C(C)C1	0.0742 µM	0.0727 µM	0.0661 µM	0.129 µM	67.2%	42.7%	33.2%	22.6%	71.2%	41.1%	30.1%	24.9%	60.6%	45%	32.5%	24.6%	71.4%	53.6%	36.8%	23.3%	IC50 (second compound 10 µM): < 0.0316 µM; viability, T/C [5]: 19.3%; viability, T/C [6]: 19.4%; viability, T/C [11]: 21.9%; viability, T/C [12]: 20.4%; viability, T/C [17]: 23%; viability, T/C [18]: 19.8%; viability, T/C [23]: 23.1%; viability, T/C [24]: 19.2%; viability, T/C [25]: 39.2%; viability, T/C [26]: 36.9%; viability, T/C [27]: 25.3%; viability, T/C [28]: 22.2%; viability, T/C [29]: 17.1%; viability, T/C [30]: 17.4%
CC1OCC2(CCN(c3cnc(Sc4ccnc(N)c4Cl)c(N)n3)CC2)C1N (stereo not given) + C=CC(=O)N1CCN(c2nc(=O)n(-c3c(C)ccnc3C(C)C)c3nc(-c4c(O)cccc4F)c(F)cc23)C(C)C1	< 0.0316 µM	0.0623 µM	0.0905 µM	0.134 µM	47.7%	39.1%	26.5%	16.3%	63.7%	39.8%	28.4%	19.2%	67.5%	47%	36.9%	27.4%	61%	51.7%	42.5%	30.1%	IC50 (second compound 10 µM): < 0.0316 µM; viability, T/C [5]: 12.5%; viability, T/C [6]: 13.3%; viability, T/C [11]: 15.6%; viability, T/C [12]: 13.6%; viability, T/C [17]: 18.2%; viability, T/C [18]: 21.5%; viability, T/C [23]: 24.1%; viability, T/C [24]: 24.9%; viability, T/C [25]: 44.6%; viability, T/C [26]: 40.7%; viability, T/C [27]: 30.1%; viability, T/C [28]: 26.2%; viability, T/C [29]: 25.8%; viability, T/C [30]: 23.2%
